In patent US20230068020A1, “MACROLIDE COMPOUND AND ITS USE OF TREATMENT CHRONIC RESPIRATORY DISEASE” (priority 2020, published 2023):
In brackets after ≈: the same amount, converted by molar mass.

Key:
Format in all cases: cell-based
THP-1 cell [1] = assay: Cell viability (LD50) in THP-1 differentiation test
Protocol: The medium lethal dose (LD50) is the dosage of a compound that reduces the cell viability by 50%, and is determined using non-linear logistic regression.

THP-1 cell [2] = assay: Differentiation of monocyte to macrophage in THP-1 cell line; settings: for EC50: THP-1 differentiate to macrophage, PMA, 96 hrs incubation; for Emax / Maximal activation level: ratio of best effect of compound to that of erythromycin 100 uM, THP-1 differentiation; for Emax: read-out: Maximal activation level
Protocol: The THP-1 cell line was purchased from ATCC (American Type Culture Collection, Manassas, Va.). Cells were maintained in growth medium (RPMI-1640) with supplemented with 10% heat inactivated bovine serum, 100× Glutamax medium and 0.05 mM β-Mercaptoethanol at 37° C. under 5% CO2. Compounds were dissolved in 0.1% DMSO. Erythromycin was used as a positive control.
For the assessment of the effect of compounds of the present invention on differentiation of monocyte to macrophage in THP-1 cell line, cells were collected and centrifuged at 900 rpm for 4 minutes. The cell density was adjusted to 2.5×10^5/mL. cell suspension of 400 μL was added to each well of 48-well plate following the plate layout. PMA 1 mg, a compound can induce monocyte differentiation, was dissolved in 10 mL DMSO to form 100 μg/mL solution and aliquote it into 1 mL per vial. 1 mL solution can be further aliquoted into 10 μL per vial and stored the aliquots at −20° C. Make 10-fold dilution of PMA with DMSO and then 500-fold dilution with complete medium. 50 μL solution were then added to each well of 48-well plate following the plate layout. Erythromycin and compounds of examples at stock concentration of 10 mM was serially diluted at 10-fold in DMSO. 50 μL solution was added to each well of 48-well plate following the plate layout. After 96 hrs incubation at 37° C., 5% CO2, the plate was washed with DPBS for three times to remove non-adherent cells for three times. Complete medium 180 μL and alarmar blue 20 μL was added to each well. The fluorescent intensity was read at excitation 530 nm and emission 590 nm using PerkinElmer Victor3 after 3 hours plate incubation.
The differentiation activity of compounds of Examples is compared to that of 100 μM erythromycin and the results are shown in FIG. 1 and Table 3.

[3] = test system: Haemophilus influenzae ATCC 49247; assay: Antibacterial activity, agar dilution MIC; settings: ATCC49247, 20-24 hrs incubation, read-out: minimum inhibitory concentration MIC
Protocol: (§1) The antibacterial activity of Erythromycin and compounds of examples were evaluated by the agar dilution method, following the guidelines of the CLSI. […] Briefly, bacteria were grown overnight in adapted media (MHIIA with 5% of sheep blood for Streptococcus pneumoniae and Haemophilus influenzae, and MHIIA for the other bacteria strains) at 35° C., 5% CO2.
(§2) Cultures were centrifuged at 3000×g for 15 min. Pellets were diluted with 5 mls cold PBS and the OD600nm was adjusted to 10^8 CFU.mL^−1 with a spectrometer. Bacteria were then added to 96-well test plates. Compounds were diluted in DMSO in a 2 fold steps from 20 mg/ml in DMSO in 96 well plated and transferred to the test plate. During the incubation, the plate was maintained at 35° C., 5% CO2.
(§3) The MICs for Erythromycin and compounds of examples were determined after 20-24 hrs incubation.

[4] = test system: Streptococcus pyogenes ATCC BAA-572; assay: Antibacterial activity, agar dilution MIC; settings: ATCCBAA572, 20-24 hrs incubation, read-out: minimum inhibitory concentration MIC
Protocol: as §1, §2, §3

[5] = test system: Staphylococcus aureus NRS 384; assay: Antibacterial activity, agar dilution MIC; settings: NRS384, 20-24 hrs incubation, read-out: minimum inhibitory concentration MIC
Protocol: as §1, §2, §3

[6] = test system: Streptococcus pneumoniae ATCC 49619; assay: Antibacterial activity, agar dilution MIC; settings: ATCC49619, 20-24 hrs incubation, read-out: minimum inhibitory concentration MIC
Protocol: as §1, §2, §3

[7] = test system: Streptococcus pneumoniae ATCC 6301; assay: Antibacterial activity, agar dilution MIC; settings: ATCC6301, 20-24 hrs incubation, read-out: minimum inhibitory concentration MIC
Protocol: as §1, §2, §3

[8] = test system: Moraxella catarrhalis ATCC 43617; assay: Antibacterial activity, agar dilution MIC; settings: ATCC43617, 20-24 hrs incubation, read-out: minimum inhibitory concentration MIC
Protocol: as §1, §2, §3

[9] = test system: Acinetobacter baumanii ATCC 17978; assay: Antibacterial activity, agar dilution MIC; settings: Acinetobacter baumannii, ATCC17978, 20-24 hrs incubation, read-out: minimum inhibitory concentration MIC
Protocol: as §1, §2, §3

[10] = test system: Staphylococcus aureus ATCC 29213; assay: Antibacterial activity, agar dilution MIC; settings: ATCC29213, 20-24 hrs incubation, read-out: minimum inhibitory concentration MIC
Protocol: as §1, §2, §3

[11] = test system: Acinetobacter baumannii ATCC-BAA-1605; assay: Antibacterial activity, agar dilution MIC; settings: ATCCBAA1605, 20-24 hrs incubation, read-out: minimum inhibitory concentration MIC
Protocol: as §1, §2, §3

[12] = test system: Enterococcus faecalis ATCC 29212; assay: Antibacterial activity, agar dilution MIC; settings: ATCC29212, 20-24 hrs incubation, read-out: minimum inhibitory concentration MIC
Protocol: as §1, §2, §3

BEAS-2B cell = assay: Cell viability (LD10) in BEAS-2B IL-8 test; settings: BEAS-2B cell viability
Description: The lethal dose (LD10) is the dosage of a compound that reduces the cell viability by […], and is estimated from non-linear logistic regression.

[13] = test system: IL-8 expression in BEAS-2B cell; assay: LPS induced IL-8 release by BEAS-2B (ELISA); settings: for Maximum Inhibition: IL-8 expression in BEAS-2B cells, LPS; for IC10: concentration inhibiting IL-8 production on BEAS-2B by 10%, LPS 20 μg/mL
Protocol: The inhibitory effect of compounds of Examples on the IL-8 expression in BEAS-2B cell was tested using the following method. BEAS-2B was purchased from ATCC (American Type Culture Collection, Manassas, Va.). Cells were maintained in growth medium (LHC-9) and cultured at 37° C. under 5% CO2. Compounds were dissolved in 0.1% DMSO. Erythromycin was used as a positive control.
For the assessment of the effect of compounds of Examples on IL-8 expression inhibition in BEAS-2B cell line, cells were plated in 24 well plate at a density of 100,000/mL, in a final volume of 1 mL of assay medium. Cells were incubated at 37° C., 5% CO2 for 1 day. After the incubation, compounds were added at day 2 and LPS was added at day 3. A compound source plate was prepared by triplicate five-point 10-fold or 2-fold serial dilutions in DMSO, beginning at 1 mM (final top concentration of compounds of Examples in the assay was 100 μM and the DMSO was 0.1%). The positive control consisted of cells treated with 100 μM erythromycin and negative control was consisted of 0.1% DMSO treated cells. LPS stock solution at 5 mg/mL was made by dissolving 10 mg of LPS powder into 2 mL of ddH2O and aliquoted to 100 μL per vial. Final concentration of LPS in the assay was […] by making 125-fold dilution of stock solution with medium.
Specific immunoreactivity for IL-8 in culture supernatants were measured by a commercially available ELISA kits (R&D Systems, Inc., Minneapolis, Minn.). Each sample was assayed in duplicates as recommended by the manufacture. The concentration of compounds of Examples inhibiting IL-8 production on BEAS-2B by 10% was estimated from a 4-parametric of the normalized dose response curve. (IC10)

[14] = dosage that reduces the cell viability by 50%, THP-1

Compound	LD50 (THP-1 cell [1]; human) [µM]	EC50 (THP-1 cell [2]; Homo sapiens) [µM]	Emax (THP-1 cell [2]; Homo sapiens) [%]	LD10 (BEAS-2B cell) [µM]	Maximum Inhibition [13] [%]	IC10 [13] [µM]	further results
CC[C@H]1OC(=O)[C@H](C)[C@@H](OC2CC(C)(OC)C(O)C(C)O2)[C@H](C)[C@@H](OC2CC(N(C)C(C)=O)CC(C)O2)[C@@](C)(O)C[C@@H](C)CN(C)[C@H](C)[C@@H](O)[C@]1(C)O (some centres unmarked) [LY101-48]	111.0 ± 13.6	18.5 ± 4.2	420 ± 110				
CC[C@H]1OC(=O)[C@H](C)[C@@H](OC2CC(C)(OC)C(O)C(C)O2)[C@H](C)[C@@H](OC2CC(N(C)C)CC(C)O2)[C@@](C)(O)C[C@@H](C)/C(=N\OCOCCOC)[C@H](C)[C@@H](O)[C@]1(C)O (some centres unmarked) [LY101-39]	90.0 ± 18.4	10.1 ± 2.2	740 ± 80	100	35	20	MIC [3]: > 128 µg/mL; MIC [4]: > 128 µg/mL; MIC [5]: > 128 µg/mL; MIC [6]: > 128 µg/mL; MIC [7]: > 128 µg/mL; MIC [8]: > 128 µg/mL; MIC [9]: > 128 µg/mL; MIC [10]: > 128 µg/mL; MIC [11]: > 128 µg/mL; MIC [12]: > 128 µg/mL
CC[C@H]1OC(=O)[C@H](C)[C@@H](OC2CC(C)(OC)C(O)C(C)O2)[C@H](C)[C@@H](OC2CC(NC)CC(C)O2)[C@@]2(C)CC(C)=C(O2)[C@H](C)[C@@H](O)[C@]1(C)O (some centres unmarked) [LY101-6]							LD50 (THP-1 cell [1]; [14]): 103.2 ± 11.4 µM; EC50 (THP-1 cell [2]): 11.5 ± 3.2 µM; Maximal activation level (THP-1 cell [2]): 3.9 ± 0.8
CC[C@H]1OC(=O)[C@H](C)[C@@H](OC2CC(C)(OC)C(O)C(C)O2)[C@H](C)[C@@H](OC2CC(N(C)C(C)=O)CC(C)O2)[C@@](C)(O)C[C@@H](C)[C@H](O)[C@H](C)[C@@H](O)[C@]1(C)O (some centres unmarked) [LY101-33]	110.0 ± 12.1	22.6 ± 5.7	314 ± 1	60	25	20	
CC[C@H]1OC(=O)[C@H](C)[C@@H](O[C@H]2C[C@@](C)(OC)[C@@H](O)[C@H](C)O2)[C@H](C)[C@@H](O[C@H]2C[C@@H](N(C)C)C[C@@H](C)O2)[C@](C)(O)C[C@@H](C)C(=O)[C@H](C)[C@@H](O)[C@]1(C)O [LY101-2, (3R,4S,5S,6R,9R,11R,12R,13S,14R)-6-(((2S,4S,6R)-4-(dimethylamino)-6-methyltetrahydro-2H-pyran-2-yl)oxy)-14-ethyl-7,12,13-trihydroxy-4-(((2R,4R,5S,6S)-5-hydroxy-4-methoxy-4,6-dimethyltetrahydro-2H-pyran-2-yl)oxy)-3,5,7,9,11,13-hexamethyloxacyclotetradecane-2,10-dione]	4.6 ± 1.3	0.3 ± 0.03	650 ± 170				MIC [3]: > 128 µg/mL; MIC [4]: 64 µg/mL (≈ 89.1 µM); MIC [5]: > 128 µg/mL; MIC [6]: 16 µg/mL (≈ 22.3 µM); MIC [7]: 64 µg/mL (≈ 89.1 µM); MIC [8]: > 128 µg/mL; MIC [9]: > 128 µg/mL; MIC [10]: 64 µg/mL (≈ 89.1 µM); MIC [11]: > 128 µg/mL; MIC [12]: > 128 µg/mL
CC[C@H]1OC(=O)[C@H](C)[C@@H](OC2CC(C)(OC)C(O)C(C)O2)[C@H](C)[C@@H](OC2CC(N(C)C)CC(C)O2)[C@@](C)(O)C[C@@H](C)CN(C)[C@H](C)[C@@H](O)[C@]1(C)O (some centres unmarked) [LY101-44]	20.4 ± 8.4	1.2 ± 0.2	450 ± 90				
CC[C@H]1OC(=O)[C@H](C)[C@@H](O)[C@H](C)[C@@H](OC2CC(N(C)C)CC(C)O2)[C@@](C)(O)C[C@@H](C)/C(=N\OCOCCOC)[C@H](C)[C@@H](O)[C@]1(C)O (some centres unmarked) [LY101-40]	100	106	180				
CC[C@H]1OC(=O)[C@H](C)[C@@H](OC2CC(C)(OC)C(O)C(C)O2)[C@H](C)[C@@H](OC2CC(N(C)C(C)C)CC(C)O2)[C@@](C)(O)C[C@@H](C)CN(C)[C@H](C)[C@@H](O)[C@]1(C)O (some centres unmarked) [LY101-47]	64.7 ± 17.9	4.3 ± 1.8	310 ± 110				
CC[C@H]1OC(=O)[C@H](C)[C@@H](OC2CC(C)(OC)C(O)C(C)O2)[C@H](C)[C@@H](OC2CC(NC)CC(C)O2)[C@@](C)(O)C[C@@H](C)[C@H](O)[C@H](C)[C@@H](O)[C@]1(C)O (some centres unmarked) [LY101-31]	115.0 ± 10.4	32.8 ± 2.5	620 ± 150				
CC[C@H]1OC(=O)[C@H](C)[C@@H](OC2CC(C)(OC)C(O)C(C)O2)[C@H](C)[C@@H](OC2CC(N(C)C(C)C)CC(C)O2)[C@@]2(C)CC(C)=C(O2)[C@H](C)[C@@H](O)[C@]1(C)O (some centres unmarked) [LY101-24]				50	42	10	LD50 (THP-1 cell [1]; [14]): 56.9 ± 14.0 µM; EC50 (THP-1 cell [2]): 6.8 ± 1.4 µM; Maximal activation level (THP-1 cell [2]): 7.0 ± 1.6
CC[C@H]1OC(=O)[C@H](C)[C@@H](OC2CC(C)(OC)C(O)C(C)O2)[C@H](C)[C@@H](OC2CC(N(C)C(C)=O)CC(C)O2)[C@@]2(C)CC(C)=C(O2)[C@H](C)[C@@H](O)[C@]1(C)O (some centres unmarked) [LY101-27]				100	40	10	LD50 (THP-1 cell [1]; [14]): 121.1 ± 7.8 µM; EC50 (THP-1 cell [2]): 12.2 ± 4.6 µM; Maximal activation level (THP-1 cell [2]): 5.3 ± 1.5
CC[C@H]1OC(=O)[C@H](C)[C@@H](OC2CC(C)(OC)C(O)C(C)O2)[C@H](C)[C@@H](OC2CC(N(C)C)CC(C)O2)[C@@](C)(O)CC(C)[C@H](N)[C@H](C)[C@@H](O)[C@]1(C)O (some centres unmarked) [LY101-30]	65.3 ± 7.1	36.8 ± 20.1	610 ± 120				
